Data taken from US20090076075A1, “QUINOLINE DERIVATIVES” (priority 2006, published 2009).

Tests used:
PDGFRβ = target: T1, PDGFRβ (Homo sapiens, UniProt P09619); assay: In vitro phospho-Tyr751 PDGFRβ ELISA assay (Test (b)); format: cell-based; details: MG63 osteosarcoma cells stimulated with PDGFBB, read-out: IC50 versus phospho-Tyr751 formation in PDGFRβ
T1 construct: endogenous in cells; host or cells: MG63 osteosarcoma cells (ATCC)
Protocol: This assay uses a conventional ELISA method to determine the ability of test compounds to inhibit phosphorylation of tyrosine in PDGFRβ.
Aliquots (100 μl) of culture media were placed in the outer wells to minimise edge effects. The cells were incubated overnight at 37° C. with 7.5% CO2 to allow the cells to adhere to the wells.
Aliquots (3 μl) of each compound concentration were added to test medium (300 μl) to create a second dilution range. Aliquots (16 μl) of each resultant compound concentration were added to the cells in each well. “Maximum” control cells received a dilution of DMSO plus test medium only. “Minimum” control cells received a reference PDGFR inhibitor (16 μl). The cells were incubated for 90 minutes at 37° C. with 7.5% CO2.
The resultant cells were stimulated with PDGFBB using the following procedure. A lyophilised powder of PDGFBB, (Sigma-Aldrich; Catalogue No. P4306) was mixed with sterile water to provide a stock solution of 10 μg/ml of PDGFBB. […] Aliquots thereof (44 μl) were added to compound treated cells and to the “Maximum” control cells. The “Minimum” control cells received medium only. The cells were incubated at 37° C. with 7.5% CO2 for 5 minutes. […] The resultant tissue culture plates were shaken for 5 minutes at ambient temperature to ensure full lysis and then frozen at −20° C. until required.
Aliquots (50 μl) were added to each well and the plates were placed at 4° C. for 16 hours. The wells were washed 5 times (1 minute soak each time) with 300 μl per well of PBST. The wells were treated with 50 μl of 3% BSA in PBST at ambient temperature for 1 hour and subsequently washed twice with 300 μl per well of PBST.
The tissue culture plates with frozen cell lysate were allowed to warm to 0° C.

KDR (VEGFR2) = target: T2, KDR (VEGFR2) (Homo sapiens, UniProt P35968); assay: In vitro phospho-KDR ELISA assay (Test (c)); format: cell-based; details: HUVECs stimulated with VEGF, read-out: IC50 versus phospho-tyrosine formation in KDR
T2 construct: phosphorylation of KDR expressed in human umbilical vein endothelial cells (HUVECs); host or cells: HUVEC
Protocol: (c) In Vitro Phospho-KDR ELISA Assay
This assay uses a conventional ELISA method to determine the ability of test compounds to inhibit phosphorylation of tyrosine in KDR (VEGFR2).
The cells were incubated overnight at 37° C. with 7.5% CO2 to allow adherence to the well surface. […] The plates were incubated at 37° C. for 2.5 hours.
Test compounds were prepared as 10 mM stock solutions in DMSO and serially diluted with DMSO as required. […] Aliquots (50 μl) of each resultant compound concentration were added to the cells in each well. […] The cells were incubated for 90 minutes at 37° C. with 7.5% CO2.
The resultant cells were stimulated with VEGF using the following procedure. […] A dilution of this stock solution into ‘serum free medium’ provided a 1000 ng/ml VEGF solution. Aliquots thereof (50 μl) were added to all wells. The cells were incubated at 37° C. with 7.5% CO2 for 5 minutes. […] The resultant tissue culture plates were shaken for 5 minutes at ambient temperature to ensure full lysis before being frozen on dry-ice and stored at −20° C. until required.
The antibody was diluted in PBS to a concentration of 8 μg/ml, aliquots (100 μl) were added to each well and the plates were stored at ambient temperature for 16 hours. The wells were washed 3 times (1 minute soak each time) with 300 μl per well of PBST. The wells were treated with PBS containing 1% filter-sterilised BSA (1% BSA/PBS; 200 μl) at ambient temperature for 1 hour and subsequently washed 3 times with 300 μl per well of PBST.
The tissue culture plates with frozen cell lysate were allowed to warm to 0° C. Aliquots (100 μl) of the HUVEC cell lysate were added and the ELISA plates were agitated at ambient temperature for 3 hours. The wells were washed 3 times with 300 μl per well of PBST.

T2 sequence (P35968 20-1356): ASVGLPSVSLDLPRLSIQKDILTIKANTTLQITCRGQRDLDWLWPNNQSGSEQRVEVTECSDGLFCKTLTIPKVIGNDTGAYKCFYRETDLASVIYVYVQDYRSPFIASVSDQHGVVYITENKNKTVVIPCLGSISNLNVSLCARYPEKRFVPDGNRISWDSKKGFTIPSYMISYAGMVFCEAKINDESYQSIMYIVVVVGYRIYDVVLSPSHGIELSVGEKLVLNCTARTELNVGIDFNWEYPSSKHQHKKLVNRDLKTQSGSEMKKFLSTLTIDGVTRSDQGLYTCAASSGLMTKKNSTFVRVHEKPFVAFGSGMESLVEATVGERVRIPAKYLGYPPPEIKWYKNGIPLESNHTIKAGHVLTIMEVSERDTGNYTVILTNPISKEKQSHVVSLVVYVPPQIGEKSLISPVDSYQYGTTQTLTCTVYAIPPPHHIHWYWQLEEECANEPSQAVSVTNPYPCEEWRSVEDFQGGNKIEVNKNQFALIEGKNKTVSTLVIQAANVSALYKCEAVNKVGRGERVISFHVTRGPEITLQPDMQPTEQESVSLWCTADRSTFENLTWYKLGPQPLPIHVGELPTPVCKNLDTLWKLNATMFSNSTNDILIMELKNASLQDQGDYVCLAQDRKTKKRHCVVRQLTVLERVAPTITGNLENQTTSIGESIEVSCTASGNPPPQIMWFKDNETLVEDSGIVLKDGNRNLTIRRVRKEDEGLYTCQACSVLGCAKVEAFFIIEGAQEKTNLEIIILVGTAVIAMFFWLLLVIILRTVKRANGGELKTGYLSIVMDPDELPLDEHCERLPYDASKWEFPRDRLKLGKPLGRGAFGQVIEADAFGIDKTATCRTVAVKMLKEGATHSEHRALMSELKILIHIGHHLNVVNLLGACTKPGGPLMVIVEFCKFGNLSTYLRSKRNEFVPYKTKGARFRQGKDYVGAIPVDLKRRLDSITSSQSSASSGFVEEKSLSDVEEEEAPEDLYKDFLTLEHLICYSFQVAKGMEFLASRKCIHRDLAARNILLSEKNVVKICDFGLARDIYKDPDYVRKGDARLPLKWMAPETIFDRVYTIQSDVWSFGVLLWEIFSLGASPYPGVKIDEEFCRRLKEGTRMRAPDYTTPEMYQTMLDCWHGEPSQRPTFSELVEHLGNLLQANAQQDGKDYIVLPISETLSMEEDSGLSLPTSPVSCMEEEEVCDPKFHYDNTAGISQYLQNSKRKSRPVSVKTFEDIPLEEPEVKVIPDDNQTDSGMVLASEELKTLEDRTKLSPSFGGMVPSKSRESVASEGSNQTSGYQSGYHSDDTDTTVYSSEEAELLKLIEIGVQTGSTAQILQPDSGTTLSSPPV
T1 sequence (P09619 33-1106): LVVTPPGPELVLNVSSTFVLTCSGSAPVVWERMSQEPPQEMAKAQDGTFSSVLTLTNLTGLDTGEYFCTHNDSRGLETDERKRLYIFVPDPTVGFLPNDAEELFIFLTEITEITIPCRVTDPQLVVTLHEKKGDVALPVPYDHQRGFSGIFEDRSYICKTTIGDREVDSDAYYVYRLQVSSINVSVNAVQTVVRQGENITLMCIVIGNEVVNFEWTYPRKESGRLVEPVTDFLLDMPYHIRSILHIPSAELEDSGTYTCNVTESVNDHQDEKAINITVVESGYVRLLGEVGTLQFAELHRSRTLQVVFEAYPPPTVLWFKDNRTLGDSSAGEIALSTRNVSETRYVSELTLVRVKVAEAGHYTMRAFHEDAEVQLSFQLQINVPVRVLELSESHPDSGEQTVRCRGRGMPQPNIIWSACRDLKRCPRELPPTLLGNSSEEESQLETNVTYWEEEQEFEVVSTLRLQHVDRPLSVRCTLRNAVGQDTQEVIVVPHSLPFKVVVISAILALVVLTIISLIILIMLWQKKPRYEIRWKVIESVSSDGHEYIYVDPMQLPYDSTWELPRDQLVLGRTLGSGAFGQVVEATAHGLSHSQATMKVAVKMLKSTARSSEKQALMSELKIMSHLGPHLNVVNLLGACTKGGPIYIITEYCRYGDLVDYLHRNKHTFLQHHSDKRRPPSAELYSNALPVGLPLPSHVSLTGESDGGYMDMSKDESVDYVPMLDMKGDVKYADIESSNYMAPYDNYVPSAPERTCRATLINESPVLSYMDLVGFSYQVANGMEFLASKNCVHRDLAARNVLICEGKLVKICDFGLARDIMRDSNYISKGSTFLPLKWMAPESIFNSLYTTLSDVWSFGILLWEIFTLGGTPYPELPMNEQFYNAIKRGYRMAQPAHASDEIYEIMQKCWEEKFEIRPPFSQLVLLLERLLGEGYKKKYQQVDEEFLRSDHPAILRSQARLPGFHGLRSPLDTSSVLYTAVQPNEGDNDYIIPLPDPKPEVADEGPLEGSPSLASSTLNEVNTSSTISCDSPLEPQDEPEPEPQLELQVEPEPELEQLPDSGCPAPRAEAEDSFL

IC50 (PDGFRβ)	IC50 (KDR (VEGFR2))	SMILES
~5 nM	> 2000 nM	COc1ccc2c(Oc3cnc(CC(=O)Nc4noc(C)c4C)c(OC)c3)ccnc2c1 [N-(4,5-dimethylisoxazol-3-yl)-2-[3-methoxy-5-(7-methoxyquinolin-4-yloxy)pyridin-2-yl]acetamide]
~5 nM	> 2000 nM	COc1cc2nccc(Oc3cnc(CC(=O)Nc4n[nH]c(C)c4C)c(OC)c3)c2cc1OC [N-(4,5-dimethylpyrazol-3-yl)-2-[5-(6,7-dimethoxyquinolin-4-yloxy)-3-methoxypyridin-2-yl]acetamide]
~5 nM	> 2000 nM	CCc1cc(NC(=O)Cc2ncc(Oc3ccnc4ccc(F)cc34)cc2OC)no1 [N-(5-ethylisoxazol-3-yl)-2-[5-(6-fluoroquinolin-4-yloxy)-3-methoxypyridin-2-yl]acetamide]
~30 nM		CCc1cc(NC(=O)Cc2ccc(Oc3ccnc4cc(OC)c(C#N)cc34)cn2)n[nH]1 [Example 3, N-(5-ethylpyrazol-3-yl)-2-[5-(6-cyano-7-methoxyquinolin-4-yloxy)pyridin-2-yl]acetamide]
